Experimental findings from patent US20240182431A1, “NEW CONTRAST AGENT FOR USE IN MAGNETIC RESONANCE IMAGING” (Bayer Aktiengesellschaft, priority 2021, published 2024) are described below.

A short description of the data set: Partition coefficient (logP butanol/buffer). The format is physicochemical. The following applies: 1-butanol / 50 mM Tris-HCl, pH 7.4, room temperature.
On to `CCOCCOCCOc1ccc(CC(C(=O)O)N2CCN(CC(=O)[O-])CCN(CC(=O)[O-])CCN(CC(=O)[O-])CC2)cn1.[Gd+3]` (centres unmarked) [Example 16, gadolinium 2,2′,2″-{10-[1-carboxy-2-{6-[2-(2-ethoxyethoxy)ethoxy]pyridin-3-yl}ethyl]-1,4,7,10-tetraazacyclododecane-1,4,7-triyl}triacetate], for which the “Log P (butanol/buffer)” value is reported as −1.81. Then `CCOCCOCCOc1ccc(CCC[C@H](C(=O)O)N2CCN([C@@H](CO)C(=O)[O-])CCN([C@@H](CO)C(=O)[O-])CCN([C@@H](CO)C(=O)[O-])CC2)cc1.[Gd+3]` [Example 18, gadolinium (2S,2′S,2″S)-2,2′,2″-{10-[(1R)-1-carboxy-4-{4-[2-(2-ethoxyethoxy)ethoxy]phenyl}butyl]-1,4,7,10-tetraazacyclododecane-1,4,7-triyl}tris(3-hydroxypropanoate)], with −1.11. Then `CCOCCOCCOc1ccc(CCC[C@H](C(=O)O)N2CCN([C@H](CO)C(=O)[O-])CCN([C@H](CO)C(=O)[O-])CCN([C@H](CO)C(=O)[O-])CC2)cc1.[Gd+3]` [Example 19, gadolinium (2R,2R,2″R)-2,2′,2″-{10-[(1R)-1-carboxy-4-{4-[2-(2-ethoxyethoxy)ethoxy]phenyl}butyl]-1,4,7,10-tetraazacyclododecane-1,4,7-triyl}tris(3-hydroxypropanoate)], with −0.95; and `CCOCCOCCOc1ccc(CCC[C@@H](C(=O)O)N2CCN([C@H](CO)C(=O)[O-])CCN([C@H](CO)C(=O)[O-])CCN([C@H](CO)C(=O)[O-])CC2)cc1.[Gd+3]` [Example 20, gadolinium (2R,2′R,2″R)-2,2′,2″-{10-[(1S)-1-carboxy-4-{4-[2-(2-ethoxyethoxy)ethoxy]phenyl}butyl]-1,4,7,10-tetraazacyclododecane-1,4,7-triyl}tris(3-hydroxypropanoate)], with −1.11. `CCOCCOCCOc1ccc(CC(C(=O)O)N2CCN(CC(=O)[O-])CCN(CC(=O)[O-])CCN(CC(=O)[O-])CC2)nc1.[Gd+3]` (centres unmarked) [Example 23, gadolinium 2,2′,2″-{10-[1-carboxy-2-{5-[2-(2-ethoxyethoxy)ethoxy]pyridin-2-yl}ethyl]-1,4,7,10-tetraazacyclododecane-1,4,7-triyl}triacetate]: the “Log P (butanol/buffer)” value is on record as −1.94. Then `CCCOc1ccc(CCC(C(=O)O)N2CCN(CC(=O)[O-])CCN(CC(=O)[O-])CCN(CC(=O)[O-])CC2)cc1.[Gd+3]` (centres unmarked) [Example 24, gadolinium 2,2′,2″-{10-[1-carboxy-3-(4-propoxyphenyl)propyl]-1,4,7,10-tetraazacyclododecane-1,4,7-triyl}triacetate], with −0.71; and `CCOCCOCCOc1ccc(CCC[C@@H](C(=O)O)N2CCN(CC(=O)[O-])CCN(CC(=O)[O-])CCN(CC(=O)[O-])CC2)cc1.[Gd+3]` [Example 26, gadolinium 2,2′,2″-{10-[(1S)-1-carboxy-4-{4-[2-(2-ethoxyethoxy)ethoxy]phenyl}butyl]-1,4,7,10-tetraazacyclododecane-1,4,7-triyl}triacetate], with −1.01. As for `CCOc1ccc(CCCC[C@@H](C(=O)O)N2CCN(CC(=O)[O-])CCN(CC(=O)[O-])CCN(CC(=O)[O-])CC2)cc1.[Gd+3]` [Example 27, gadolinium 2,2′,2″-{10-[(1S)-1-carboxy-5-(4-ethoxyphenyl)pentyl]-1,4,7,10-tetraazacyclo-dodecane-1,4,7-triyl}triacetate], the “Log P (butanol/buffer)” value is listed as −0.41.

Take `CCOc1ccc(CCCC(C(=O)O)N2CCN(CC(=O)[O-])CCN(CC(=O)[O-])CCN(CC(=O)[O-])CC2)cc1.[Gd+3]` (centres unmarked) [Example 28, gadolinium 2,2′,2″-{10-[1-carboxy-4-(4-ethoxyphenyl)butyl]-1,4,7,10-tetraazacyclododecane-1,4,7-triyl}triacetate]: the “Log P (butanol/buffer)” value was −0.71. Then `CCCC(C(=O)[O-])N1CCN(CC(=O)[O-])CCN(C(Cc2ccc(OCC)cc2)C(=O)O)CCN(CC(=O)[O-])CC1.[Gd+3]` (centres unmarked) [Example 29, gadolinium 2-{7-[1-carboxy-2-(4-ethoxyphenyl)ethyl]-4,10-bis(carboxylatomethyl)-1,4,7,10-tetraazacyclododecan-1-yl}pentanoate], with −0.53; and `CCCC(C(=O)[O-])N1CCN(CC(=O)[O-])CCN(C(Cc2ccc(OCC)cc2)C(=O)O)CCN(CC(=O)[O-])CC1.[Gd+3]` (centres unmarked) [Example 30, gadolinium 2-{7-[1-carboxy-2-(4-ethoxyphenyl)ethyl]-4,10-bis(carboxylatomethyl)-1,4,7,10-tetraazacyclododecan-1-yl}pentanoate], with −0.60; and `CCCCOc1ccc(CCC[C@@H](C(=O)O)N2CCN(CC(=O)[O-])CCN(CC(=O)[O-])CCN(CC(=O)[O-])CC2)cc1.[Gd+3]` [Example 31, gadolinium 2,2′,2″-{10-[(1S)-4-(4-butoxyphenyl)-1-carboxybutyl]-1,4,7,10-tetraazacyclododecane-1,4,7-triyl}triacetate], with 0.20. Next, `CCOCCOc1ccc(CC(C(=O)O)N2CCN(CC(=O)[O-])CCN(CC(=O)[O-])CCN(CC(=O)[O-])CC2)cc1.[Gd+3]` (centres unmarked) [Example 32, gadolinium 2,2′,2″-(10-{1-carboxy-2-[4-(2-ethoxyethoxy)phenyl]ethyl}-1,4,7,10-tetraazacyclododecane-1,4,7-triyl)triacetate]: −1.53; `CCCCOc1cccc(CCC[C@@H](C(=O)O)N2CCN([C@@H](CO)C(=O)[O-])CCN([C@@H](CO)C(=O)[O-])CCN([C@@H](CO)C(=O)[O-])CC2)c1.[Gd+3]` [Example 34, gadolinium (2S,2′S,2″S)-2,2′,2″-{10-[(1S)-4-(3-butoxyphenyl)-1-carboxybutyl]-1,4,7,10-tetraazacyclododecane-1,4,7-triyl}tris(3-hydroxypropanoate)]: 0.12. Then `CCOCCOCCOc1ccc(CCC[C@@H](C(=O)O)N2CCN([C@@H](CO)C(=O)[O-])CCN([C@H](CO)C(=O)[O-])CCN([C@@H](CO)C(=O)[O-])CC2)cc1.[Gd+3]` [Example 35, gadolinium (2S,2′S)-2,2′-{4-[(1S)-1-carboxy-4-{4-[2-(2-ethoxyethoxy)ethoxy]phenyl}butyl]-10-[(1R)-1-carboxylato-2-hydroxyethyl]-1,4,7,10-tetraazacyclododecane-1,7-diyl}bis(3-hydroxypropanoate)], with −1.02. As to `CCOCCOCCOc1ccc(CC(C(=O)O)N2CCN(C(CCO)C(=O)[O-])CCN(C(CCO)C(=O)[O-])CCN(C(CCO)C(=O)[O-])CC2)cc1.[Gd+3]` (centres unmarked) [Example 37, gadolinium-2,2′-{4-[1-carboxy-2-{4-[2-(2-ethoxyethoxy)ethoxy]phenyl}ethyl]-10-[1-carboxylato-3-hydroxypropyl]-1,4,7,10-tetraazacyclododecane-1,7-diyl}bis(4-hydroxybutanoate)], the “Log P (butanol/buffer)” value is −1.16. Then `CCOCCOc1ccc(CC(C(=O)O)N2CCN(CC(=O)[O-])CCN(C(COC)C(=O)[O-])CCN(CC(=O)[O-])CC2)cc1.[Gd+3]` (centres unmarked) [Example 38, gadolinium 2-[7-{1-carboxy-2-[4-(2-ethoxyethoxy)phenyl]ethyl}-4,10-bis(carboxylatomethyl)-1,4,7,10-tetraazacyclododecan-1-yl]-3-methoxypropanoate], with −1.41.
